# Source: patent publication US5106407A, “Iodones and methods for antimicrobial use” (priority 1989, dated 1992)
# Key:
# [1] = system: bacteria listed in Table I, Klebsiella oxytoca, Enterobacter gergoviae, Pseudomonas putida #1, and Pseudomonas putida #2; experiment: hand creme preservation test
# Protocol: Fifty gram aliquots of the latex were placed in sterile bottles and one hundred gram aliquots of the diluted cutting oil were placed in 250-mL Erlenmeyer flasks. An appropriate amount of a fresh 1 percent stock solution of (2-nitrophenyl)-iodonium 2,2-dimethyl-4,6-dioxo-1,3-dioxan-5-ylide in acetone-water was added to achieve the desired final concentrations (see Tables 5 and 6). A small portion of the respective latex or cutting oil preparation was then streaked onto Tryptic Soy Agar (TSA) petri plates using sterile cotton swabs to determine whether the preparations were sterile. If the particular preparation was sterile, it was then inoculated with an appropriate volume (0.1 mL for the latex and 0.2 mL for the cutting oil) of a mixture of equal aliquots of 24 hr cultures of each of the bacterial organisms listed in Table 1 (not the fungi and yeast). The latex samples were incubated at 30° C. and the cutting oils were agitated on a rotary shaker at room temperature. After 24 hr, all samples were again streaked on TSA. All plates were then incubated at 30° C. for 48 hr and then rated 1 to 10 according to the growth rating system described in Table 4.
# The results from this first set of streaks after inoculation are listed in the columns labeled streak number 1 in Tables 5 and 6. Samples with a rating of 3 or less from streak number 1 were reinoculated as described for the first inoculation above. Samples with a rating of 4 or greater were not reinoculated. After another 24 hr all samples were again restreaked on TSA agar. The results from these second streaks were labeled streak number 2 in Tables 5 and 6. Samples were reinoculated and restreaked in this fashion for a maximum of 10 streaks. Any samples with two streaks in a row with a ten rating were not restreaked again.
# The ingredients of the hand creme, hand lotion, and protein shampoo are listed in Tables 7, 8 and 9, respectively. In the cosmetic preservative procedures, the stock solution of (2-nitrophenyl)-iodonium 2,2-dimethyl-4,6-dioxo-1,3-dioxan-5-ylide) was made in dimethylformamide (DMF)/water solution. In addition to the bacteria listed in Table I, the following bacteria were also included in the inocula: Klebsiella oxytoca, Enterobacter gergoviae, Pseudomonas putida #1, and Pseudomonas putida #2.
# Pseudomonas aeruginosa = experiment: minimum inhibitory concentration (MIC), agar dilution; assay type: cell-based; details: Pseudomonas aeruginosa, ATCC10145; ATCC 10145; nutrient agar pH 6.8; read-out: MIC
# Protocol: (§1) The minimum inhibitory concentration (MIC) for the compound of Example 19, i.e., (2-nitrophenyl)-iodonium 2,2-dimethyl-4,6-dioxo-1,3-dioxan-5-ylide was determined for 9 bacteria (using nutrient agar) and 5 yeast and fungi (using malt yeast agar). A one percent solution of this test compound (i.e., the compound of Example 19) was prepared in a mixture of acetone-water. Nutrient agar was prepared at pH 6.8 using deionized water according to standard Difco procedures. Malt yeast agar was prepared by adding 3 g Bacto yeast extract and 42 g Bacto Malt agar per liter of deionized water. The agar (nutrient agar when testing with bacteria and malt yeast agar when testing with yeast and fungi) was dispensed in 30 mL aliquots into 25×200 millimeter (mm) test tubes, capped and autoclaved for 15 min at 115° C. The test tubes containing the agar were cooled in a water bath until the temperature of the agar was 48° C. and then an appropriate amount of the one percent solution of the test compound was added (except in the controls where no test compound was added with the acetone-water) to the respective test tubes so that final concentrations of 500, 250, 100, 50, 25, 10, 5, 2.5, 1.0 and 0 parts per million (ppm) of the test compound in the agar were obtained. The agar solutions were each mixed and poured into individual petri plates so that each petri plate contained agar having a known concentration of test compound dispersed therein. After drying for 24 hr, the petri plates were inoculated with bacteria when the petri plates contained nutrient broth agar or with fungi and yeast when the petri plates contained malt yeast agar.
# (§2) The inoculation with bacteria was accomplished using the following procedure. Twenty-four hr cultures of each of the bacteria were prepared by incubating the respective bacteria in tubes containing nutrient broth for 24 hr at 30° C. in a shaker. Dilutions of each of the 24 hr cultures were made so that 9 separate suspensions (one for each of the 9 test bacteria) were made, each containing about 10^8 colony forming units (CFU) per mL of suspension of a particular bacteria. Aliquots of 0.3 mL of each of the above suspensions were used to fill individual wells of a Steer's Replicator. For each microbial suspension, 0.3 mL was used to fill 3 wells (i.e., 3 wells of 0.3 mL each) so that for the 9 different bacteria 27 wells were filled. The Steer's Replicator was then used to inoculate the petri plates.
# (§3) The petri plates were incubated at 30° C. for 48 hr and then read to determine if the test compound (i.e., the compound of Example 19) which was incorporated into the agar prevented growth of the respective bacteria. The minimum inhibitory concentration (MIC) for each bacteria was defined as the lowest concentration of the test compound which prevented growth of that bacteria.
# (§4) In a similar procedure, the MIC (in ppm) of the compound of Example 11 (i.e., (2-nitrophenyl)-iodonium 2,6-dioxocyclohexylide) for various organisms was determined at an acid pH (about 6.8) and at an alkaline pH (about 8.2).
# Klebsiella pneumoniae = experiment: as above; assay type: cell-based; details: Klebsiella pneumoniae, ATCC8308; ATCC 8308; nutrient agar pH 6.8; read-out: MIC
# Protocol: as §1, §2, §3, §4
# [2] = system: Pseudomonas aeruginosa PRD-10; experiment: as above; assay type: cell-based; details: Pseudomonas aeruginosa, ATCC15442; ATCC 15442; nutrient agar pH 6.8; read-out: MIC
# Protocol: as §1, §2, §3, §4
# Proteus vulgaris = experiment: as above; assay type: cell-based; details: Proteus vulgaris, ATCC881; ATCC 881; nutrient agar pH 6.8; read-out: MIC
# Protocol: as §1, §2, §3, §4
# Escherichia coli = experiment: as above; assay type: cell-based; details: Escherichia coli, ATCC11229; ATCC 11229; nutrient agar pH 6.8; read-out: MIC
# Protocol: as §1, §2, §3, §4
# Staphylococcus aureus = experiment: as above; assay type: cell-based; details: Staphylococcus aureus, ATCC6538; ATCC 6538; nutrient agar pH 6.8; read-out: MIC
# Protocol: as §1, §2, §3, §4
smiles,measurement,setting,value
"CC1(C)OC(=O)[C-]([I+]c2ccccc2[N+](=O)[O-])C(=O)O1 [Example 19, (2-Nitrophenyl)-iodonium 2,2-dimethyl-4,6-dioxo-1,3-dioxan-5-ylide]",growth rating,"[1]; 10 ppm, streak 1",1 (0)
same,growth rating,"[1]; 10 ppm, streak 2",1 (0)
same,growth rating,"[1]; 10 ppm, streak 3",1 (0)
same,growth rating,"[1]; 10 ppm, streak 4",1 (0)
same,growth rating,"[1]; 10 ppm, streak 5",1 (0)
same,growth rating,"[1]; 10 ppm, streak 6",5 (26-50)
same,growth rating,"[1]; 10 ppm, streak 7",1 (0)
same,growth rating,"[1]; 10 ppm, streak 8",8 (210-300)
same,growth rating,"[1]; 10 ppm, streak 9",1 (0)
same,growth rating,"[1]; 10 ppm, streak 10",7 (101-200)
same,growth rating,"[1]; 50 ppm, streak 1",1 (0)
same,growth rating,"[1]; 50 ppm, streak 2",1 (0)
same,growth rating,"[1]; 50 ppm, streak 3",1 (0)
same,growth rating,"[1]; 50 ppm, streak 4",1 (0)
same,growth rating,"[1]; 50 ppm, streak 5",1 (0)
same,growth rating,"[1]; 50 ppm, streak 6",1 (0)
same,growth rating,"[1]; 50 ppm, streak 7",1 (0)
same,growth rating,"[1]; 50 ppm, streak 8",1 (0)
same,growth rating,"[1]; 50 ppm, streak 9",1 (0)
same,growth rating,"[1]; 50 ppm, streak 10",7 (101-200)
same,growth rating,"[1]; 100 ppm, streak 1",1 (0)
same,growth rating,"[1]; 100 ppm, streak 2",1 (0)
same,growth rating,"[1]; 100 ppm, streak 3",1 (0)
same,growth rating,"[1]; 100 ppm, streak 4",1 (0)
same,growth rating,"[1]; 100 ppm, streak 5",1 (0)
same,growth rating,"[1]; 100 ppm, streak 6",1 (0)
same,growth rating,"[1]; 100 ppm, streak 7",1 (0)
same,growth rating,"[1]; 100 ppm, streak 8",1 (0)
same,growth rating,"[1]; 100 ppm, streak 9",4 (11-25)
same,growth rating,"[1]; 100 ppm, streak 10",7 (101-200)
same,MIC,Pseudomonas aeruginosa,10 µg/mL
same,MIC,Klebsiella pneumoniae,≤ 1 µg/mL
same,MIC,[2],10 µg/mL
same,MIC,Proteus vulgaris,≤ 1 µg/mL
same,MIC,Escherichia coli,≤ 1 µg/mL
same,MIC,Staphylococcus aureus,≤ 1 µg/mL
